pIC50: −log10 of the molar value.

For this assay, the target named is T1, human metabotropic glutamate 7 receptor (hmGlu7) (Homo sapiens, UniProt Q14831).
T1 construct: expressed in transfected cells
T1 sequence (Q14831 35-922 isoform Q14831-2): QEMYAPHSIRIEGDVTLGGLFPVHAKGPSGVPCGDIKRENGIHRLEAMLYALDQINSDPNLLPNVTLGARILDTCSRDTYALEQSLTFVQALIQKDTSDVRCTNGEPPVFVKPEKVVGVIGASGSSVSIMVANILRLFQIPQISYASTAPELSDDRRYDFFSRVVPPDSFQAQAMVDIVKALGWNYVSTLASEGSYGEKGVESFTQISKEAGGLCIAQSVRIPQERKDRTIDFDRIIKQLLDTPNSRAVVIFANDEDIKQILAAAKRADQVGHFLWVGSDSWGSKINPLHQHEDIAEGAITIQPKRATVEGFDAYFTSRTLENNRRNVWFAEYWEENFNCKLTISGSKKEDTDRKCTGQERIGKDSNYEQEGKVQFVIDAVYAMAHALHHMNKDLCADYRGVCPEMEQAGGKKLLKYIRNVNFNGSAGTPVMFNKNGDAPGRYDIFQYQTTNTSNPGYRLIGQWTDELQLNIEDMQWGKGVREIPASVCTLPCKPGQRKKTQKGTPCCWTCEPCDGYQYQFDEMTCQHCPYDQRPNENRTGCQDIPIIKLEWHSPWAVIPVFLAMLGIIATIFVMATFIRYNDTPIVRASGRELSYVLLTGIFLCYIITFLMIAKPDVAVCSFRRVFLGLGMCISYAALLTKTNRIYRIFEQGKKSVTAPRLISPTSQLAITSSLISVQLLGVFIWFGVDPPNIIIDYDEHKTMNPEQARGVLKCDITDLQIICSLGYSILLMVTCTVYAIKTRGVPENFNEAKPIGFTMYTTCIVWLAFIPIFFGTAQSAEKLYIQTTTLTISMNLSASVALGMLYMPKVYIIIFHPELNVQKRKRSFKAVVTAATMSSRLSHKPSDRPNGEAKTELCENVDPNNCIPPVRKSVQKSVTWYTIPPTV
In words: mGlu7 assay on HEK-expressing human mGlu7: fluorescent cell based Ca2+ mobilization assay (FLIPR), inhibition of EC80 L-AP4 response. Particulars: HEK-293 cells expressing hmGlu7; EC80 L-AP4 stimulation; mean of at least three independent experiments in duplicate; read-out: Ca2+ Flux (mean IC50). The text has this: mGlu7 Assay on HEK-Expressing Human mGlu7
The cDNA encoding the human metabotropic glutamate 7 receptor (hmGlu7), (accession number NM_181874.2, NCBI Nucleotide database browser), was subcloned into an expression vector containing also the hygromycin resistance gene. In parallel, the cDNA encoding a G protein allowing redirection of the activation signal to intracellular calcium flux was subcloned into a different expression vector containing also the Puromycin resistance gene. Transfection of both these vectors into HEK293 cells with PolyFect reagent (Qiagen) according to supplier's protocol, and hygromycin and puromycin treatment allowed selection of antibiotic resistant cells which had integrated stably one or more copies of the plasmids. Positive cellular clones expressing hmGlu7 were identified in a functional assay measuring changes in calcium fluxes in response to glutamate and L-AP4 or known mGlu7 orthosteric antagonists.
HEK-293 cells expressing hmGlu7 were maintained in media containing DMEM, Fetal Bovine Serum (10%), Glutamax™ (2 mM), penicillin (100 units/mL), streptomycin (100 μg/mL), geneticin (100 μg/mL) and hygromycin-B (40 μg/mL) and puromycin (1 μg/mL) at 37° C. with 5% CO2 in a humidified atmosphere.
Fluorescent Cell Based-Ca^2+ Mobilization Assay Human mGlu7 HEK-293 cells were plated out 24 hours prior to a fluorescent cell-based calcium mobilization assay using FLIPR^384 assay (Molecular Device, Sunnyvale, CA, USA) in black-walled, clear-bottomed, poly-L-ornithine-coated 384-well plates at a density of 25,000 cells/well in a glutamine/glutamate free DMEM medium containing fetal bovine serum (10%), penicillin (100 units/mL), streptomycin (100 μg/mL) and doxycyline (1 μg/ml) at 37° C. with 5% CO2 in a humidified atmosphere.
On the day of the assay, the medium was aspirated and the cells were loaded with a 3 μM solution of Fluo4-AM (LuBioScience, Lucerne, Switzerland) in 0.03% pluronic acid. After 1 hour at 37° C./5% CO2, the non incorporated dye was removed by washing cell plate with the assay buffer. All assays were performed in a pH 7.4 buffered-solution containing 20 mM HEPES, 143 mM NaCl, 6 mM KCl, 1 mM MgSO4, 1 mM CaCl2, 0.125 mM sulfinpyrazone and 0.1% glucose.
After 10 s of basal fluorescence recording, various concentrations of the compounds of the invention were added to the cells. Changes in fluorescence levels were first monitored for 180 s in order to detect any agonist activity of the compounds. Then the cells were stimulated by an EC80 L-AP4 concentration for an additional 110 s in order to measure inhibiting activities of the compounds of the invention. EC80 L-AP4 concentration is the concentration giving 80% of the maximal glutamate response.
The concentration-response curves of L-AP4 or representative compounds of the present invention were generated using the Prism GraphPad software (Graph Pad Inc, San Diego, USA). The curves were fitted to a four-parameter logistic equation: […]
allowing determination of IC50 values.
The Table 3 below represents the mean IC50 obtained from at least three independent experiments of selected molecules performed in duplicate.
As to `COc1cccc(-n2c(C)c3cnn(-c4cccc(C(N)=O)c4)c(=O)c3c2C)c1` [1-73], the negative logarithm of the IC50 (pIC50) was 6.00 to 7.00.

For the molecule `COc1cccc(-n2c(C)c3cnn(-c4cccc(OC)n4)c(=O)c3c2C)c1` [1-74], the pIC50 is 5.00 to 6.00. With `COc1cccc(-n2c(C)c3cnn(-c4ccc(C(=O)N(C)C)cc4)c(=O)c3c2C)c1` [1-75], the pIC50 was 6.00 to 7.00. The same measure for `CCOc1cccc(-n2c(C)c3cnn(-c4ccccn4)c(=O)c3c2C)c1` [1-77]: 6.00 to 7.00; for `CCc1c2c(=O)n(-c3ccccn3)ncc2c(C)n1-c1cccc(OC)c1` [1-78]: 6.00 to 7.00.

For `COc1cc(-n2c(C)c3cnn(-c4ccccn4)c(=O)c3c2C)ccc1C` [1-79], the negative-log IC50 (pIC50) is 6.00 to 7.00. Consider `Cc1c2cnn(-c3ccccn3)c(=O)c2c(C)n1-c1ccc2cc[nH]c2c1` [1-80], for which the negative-log IC50 (pIC50) is 5.00 to 6.00. The same measure for `COc1ccc(-n2ncc3c(C)n(-c4ccccn4)c(C)c3c2=O)cc1` [1-81]: 5.00 to 6.00. Consider `COc1ccc(-n2ncc3c(C)n(-c4cccc(OC)c4)c(C)c3c2=O)nc1` [1-83], for which the negative logarithm of the IC50 (pIC50) was 6.00 to 7.00. As for `Cc1cccc(-n2ncc3c(C)n(-c4cccc(N5CCOCC5)c4)c(C)c3c2=O)c1` [1-84], the negative-log IC50 (pIC50) was 5.00 to 6.00.

Take `CCc1cccc(-n2c(C)c3cnn(-c4ccccn4)c(=O)c3c2C)c1` [1-85]: the pIC50 was 6.00 to 7.00. Take `CCc1ccc(-n2c(C)c3cnn(-c4ccccn4)c(=O)c3c2C)cc1` [1-86]: the pIC50 was 6.00 to 7.00. Turning to `Cc1c2cnn(-c3ccc(S(=O)(=O)N(C)C)cc3)c(=O)c2c(C)n1-c1ccccc1` [1-87], the pIC50 was 6.00 to 7.00. Turning to `CCc1c2c(=O)n(-c3ccccc3)ncc2c(C)n1-c1cccc(OC)c1` [1-89], the negative-log IC50 (pIC50) was 6.00 to 7.00. For the molecule `Cc1c2cnn(-c3ccccn3)c(=O)c2c(C)n1-c1cccc(N2CCOCC2)c1` [1-90], the pIC50 is 5.00 to 6.00. As for `COc1cccc(-n2c(C)c3cnn(-c4ccc(N5CCOCC5)nc4)c(=O)c3c2C)c1` [1-91], the pIC50 is 6.00 to 7.00. The same measure for `Cc1c2cnn(-c3ccc(CO)cc3)c(=O)c2c(C)n1-c1ccccc1` [1-92]: 6.00 to 7.00; for `Cc1c2cnn(-c3ccc(N4CCOCC4)cc3)c(=O)c2c(C)n1-c1ccccc1` [1-93]: 6.00 to 7.00; for `COc1cccc(-n2c(C)c3cnn(-c4cncc(OC)c4)c(=O)c3c2C)c1` [1-94]: 6.00 to 7.00. On to `COc1cccc(-n2c(C)c3cnn(-c4cncnc4)c(=O)c3c2C)c1` [1-95], for which the pIC50 is 6.00 to 7.00. The same measure for `Cc1c2cnn(-c3ccccn3)c(=O)c2c(C)n1-c1ccc2ccn(C)c2c1` [1-96, 5,7-Dimethyl-6-(1-methyl-1H-indol-6-yl)-2-(pyridin-2-yl)-2,6-dihydro-1H-pyrrolo[3,4-d]pyridazin-1-one]: 5.00 to 6.00; for `COc1ccc(-n2ncc3c(C)n(-c4cccc(OC)c4)c(C)c3c2=O)cc1` [1-97]: above 7.00. Take `COc1ccc(-n2c(C)c3cnn(-c4ccc(CO)cc4)c(=O)c3c2C)cc1` [1-98]: the negative-log IC50 (pIC50) was 6.00 to 7.00. In the case of `Cc1ccc(-n2c(C)c3cnn(-c4cccc(C)c4)c(=O)c3c2C)cc1` [1-99] it was 6.00 to 7.00; in that of `Cc1c2cnn(-c3ccccn3)c(=O)c2c(C)n1-c1cccc(N2CCC2)c1` [1-102, 6-(3-(Azetidin-1-yl)phenyl)-5,7-dimethyl-2-(pyridin-2-yl)-2,6-dihydro-1H-pyrrolo[3,4-d]pyridazin-1-one], above 7.00. Take `COc1ccc(-n2c(C)c3cnn(-c4ccc(OC)cc4)c(=O)c3c2C)cc1` [1-103]: the pIC50 was 6.00 to 7.00.

Consider `CC(=O)NCc1ccc(-n2ncc3c(C)n(-c4ccccc4)c(C)c3c2=O)cc1` [1-104], for which the negative-log IC50 (pIC50) was 6.00 to 7.00. Turning to `COC(=O)c1ccc(-n2ncc3c(C)n(-c4cccc(OC)c4)c(C)c3c2=O)cc1OC` [1-105], the pIC50 is 6.00 to 7.00. In the case of `COc1ccc(-n2c(C)c3cnn(-c4ccc(CNC(C)=O)cc4)c(=O)c3c2C)cc1` [1-106] it was 6.00 to 7.00; in that of `COCc1cccc(-n2c(C)c3cnn(-c4ccccn4)c(=O)c3c2C)c1` [1-107], 5.00 to 6.00. Regarding `COCc1cccc(-n2c(C)c3cnn(-c4ccccc4)c(=O)c3c2C)c1` [1-108], the pIC50 was 6.00 to 7.00.

For `Cc1c2cnn(-c3ccccn3)c(=O)c2c(C)n1-c1cccc(N(C)C)c1` [1-110], the negative-log IC50 (pIC50) is 6.00 to 7.00. For the molecule `Cc1c2cnn(-c3ccccn3)c(=O)c2c(C)n1-c1cccc(N2CCCC2=O)c1` [1-111], the pIC50 was 5.00 to 6.00. `COc1cccc(-n2c(C)c3cnn(-c4cccc(C(=O)N(C)C)c4)c(=O)c3c2C)c1` [1-112]: the pIC50 was 6.00 to 7.00. In the case of `CNC(=O)c1ccc(-n2ncc3c(C)n(-c4cccc(OC)c4)c(C)c3c2=O)cc1` [1-113], the pIC50 is 6.00 to 7.00. With `COc1cccc(-n2c(C)c3cnn(-c4cccc(CO)c4)c(=O)c3c2C)c1` [1-114], the pIC50 is 6.00 to 7.00. For the molecule `COc1cccc(-n2c(C)c3cnn(-c4cccc(CNC(C)=O)c4)c(=O)c3c2C)c1` [1-115], the pIC50 is 6.00 to 7.00. Turning to `COCc1cccc(-n2ncc3c(C)n(-c4cccc(OC)c4)c(C)c3c2=O)c1` [1-116], the pIC50 is above 7.00. Consider `COc1cccc(-n2c(C)c3cnn(-c4ccc(OC)c(OC)c4)c(=O)c3c2C)c1` [1-117], for which the negative-log IC50 (pIC50) is 6.00 to 7.00. With `COc1cccc(-n2c(C)c3cnn(-c4ccc(CCCO)cc4)c(=O)c3c2C)c1` [1-118], the pIC50 was above 7.00. Take `COc1cccc(-n2c(C)c3cnn(-c4ccc(S(C)(=O)=O)cc4)c(=O)c3c2C)c1` [1-119]: the negative-log IC50 (pIC50) was above 7.00. On to `COc1cccc(-n2c(C)c3cnn(-c4ccc(S(N)(=O)=O)cc4)c(=O)c3c2C)c1` [1-120], for which the pIC50 is above 7.00. Take `COc1cccc(-n2c(C)c3cnn(-c4ccnc(OC)c4)c(=O)c3c2C)c1` [1-121]: the pIC50 is above 7.00. Take `COc1cccc(-n2c(C)c3cnn(-c4ccc(C(F)(F)F)cn4)c(=O)c3c2C)c1` [1-122]: the pIC50 was 6.00 to 7.00.

Consider `COc1cccc(-n2c(C)c3cnn(-c4cccc(C#N)c4)c(=O)c3c2C)c1` [1-124], for which the pIC50 is 6.00 to 7.00. As for `COc1ccc(-n2c(C)c3cnn(-c4cccc(C#N)c4)c(=O)c3c2C)cc1` [1-125], the negative logarithm of the IC50 (pIC50) is 6.00 to 7.00. Regarding `COc1cccc(-n2c(C)c3cnn(-c4ccc(OC)nc4)c(=O)c3c2C)c1` [1-127], the negative logarithm of the IC50 (pIC50) is 6.00 to 7.00. On to `COCc1ccc(-n2ncc3c(C)n(-c4cccc(OC)c4)c(C)c3c2=O)cc1` [1-128], for which the negative logarithm of the IC50 (pIC50) is 6.00 to 7.00. With `COc1cccc(-n2c(C)c3cnn(-c4cc[nH]c(=O)c4)c(=O)c3c2C)c1` [1-129], the pIC50 is 6.00 to 7.00. Consider `COc1cccc(-n2c(C)c3cnn(-c4cccc(OC)c4)c(=O)c3c2C)c1` [1-130], for which the negative logarithm of the IC50 (pIC50) is above 7.00. As to `CC(=O)c1ccc(-n2c(C)c3cnn(-c4ccccn4)c(=O)c3c2C)cc1` [1-132], the pIC50 was 5.00 to 6.00.

Turning to `Cc1c2cnn(-c3ccccn3)c(=O)c2c(C)n1-c1cccc(-c2ccco2)c1` [1-136], the pIC50 is above 7.00. `Cc1c2cnn(-c3ccccn3)c(=O)c2c(C)n1-c1cccc(C2CC2)c1` [1-137]: the negative logarithm of the IC50 (pIC50) is 6.00 to 7.00.

On to `Cc1c2cnn(-c3ccccn3)c(=O)c2c(C)n1-c1cccc(OC(C)C)c1` [1-139], for which the pIC50 is 6.00 to 7.00.

With `CCc1c2cnn(-c3ccccn3)c(=O)c2c(C)n1-c1cccc(OC)c1` [1-140], the pIC50 is 5.00 to 6.00. For the molecule `Cc1c2cnn(-c3ccccc3)c(=O)c2c(C)n1-c1cccc(N2CCC2)c1` [1-141], the pIC50 is above 7.00. The same measure for `Cc1c2cnn(-c3ccccn3)c(=O)c2c(C)n1-c1cccc(-n2cccc2)c1` [1-142]: above 7.00; for `Cc1c2cnn(-c3ccccn3)c(=O)c2c(C)n1-c1cccc(N2CCCCC2)c1` [1-143]: above 7.00. On to `CCOc1cccc(-n2ncc3c(C)n(-c4cccc(OC)c4)c(C)c3c2=O)c1` [1-144], for which the negative-log IC50 (pIC50) is above 7.00. Regarding `COc1cccc(-n2c(C)c3cnn(-c4ccc(O)cc4)c(=O)c3c2C)c1` [1-145], the pIC50 was above 7.00. For `COc1cccc(-n2c(C)c3cnn(-c4cccc(CC#N)c4)c(=O)c3c2C)c1` [1-146], the negative-log IC50 (pIC50) is above 7.00. Regarding `COc1cccc(-n2c(C)c3cnn(-c4cccc(C(C)=O)c4)c(=O)c3c2C)c1` [1-147], the negative-log IC50 (pIC50) is 6.00 to 7.00.

The record behind these values is patent US20240262833A1, “FUSED HETEROCYCLIC DERIVATIVES AS NEGATIVE ALLOSTERIC MODULATORS OF MGLU7 RECEPTOR” (Addex Pharma S.A., priority 2021, published 2024).
